One compound from paper PMC10847070, “State-independent inhibition of the oncogenic Kv10.1 channel by desethylamiodarone, a comparison with amiodarone” (Pflugers Archiv, 2023) can be followed below.

For this test, the target named is T1, Kv10.1 (Eag1) (Homo sapiens, UniProt O95259).
T1 construct: gene KCNH1
T1 sequence (O95259 1-989): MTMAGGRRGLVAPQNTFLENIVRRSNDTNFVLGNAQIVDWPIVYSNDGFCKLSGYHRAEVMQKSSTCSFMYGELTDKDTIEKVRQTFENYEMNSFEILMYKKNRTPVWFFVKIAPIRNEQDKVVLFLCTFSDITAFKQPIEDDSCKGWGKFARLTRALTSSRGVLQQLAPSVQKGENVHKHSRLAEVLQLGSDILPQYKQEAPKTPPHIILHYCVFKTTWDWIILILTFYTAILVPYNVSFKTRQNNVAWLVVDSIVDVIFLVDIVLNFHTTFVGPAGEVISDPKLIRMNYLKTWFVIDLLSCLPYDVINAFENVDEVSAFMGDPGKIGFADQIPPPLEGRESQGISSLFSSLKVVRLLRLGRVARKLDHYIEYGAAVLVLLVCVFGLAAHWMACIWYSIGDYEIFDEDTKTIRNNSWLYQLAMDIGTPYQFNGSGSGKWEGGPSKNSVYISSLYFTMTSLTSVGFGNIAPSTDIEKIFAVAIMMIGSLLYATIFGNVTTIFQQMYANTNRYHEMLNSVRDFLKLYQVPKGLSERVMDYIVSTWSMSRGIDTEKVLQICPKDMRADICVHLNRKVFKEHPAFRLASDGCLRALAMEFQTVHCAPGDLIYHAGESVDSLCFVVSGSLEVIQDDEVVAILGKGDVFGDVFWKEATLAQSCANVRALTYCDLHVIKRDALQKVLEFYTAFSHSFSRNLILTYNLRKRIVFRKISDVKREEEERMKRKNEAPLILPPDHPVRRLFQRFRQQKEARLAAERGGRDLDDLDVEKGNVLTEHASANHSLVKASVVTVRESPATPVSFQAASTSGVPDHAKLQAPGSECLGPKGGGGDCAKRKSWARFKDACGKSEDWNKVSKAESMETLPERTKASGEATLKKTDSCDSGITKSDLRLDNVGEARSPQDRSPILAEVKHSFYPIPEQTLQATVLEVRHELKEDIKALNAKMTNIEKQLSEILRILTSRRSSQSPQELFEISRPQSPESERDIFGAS
The test can be described thus: patch-clamp electrophysiology of HEK293 cells stably expressing Kv10.[…]; dose-response at +[…] mV. Type of test: cell-based.

With `CCCCc1oc2ccccc2c1C(=O)c1cc(I)c(OCCNCC)c(I)c1` [desAd, desethylamiodarone], the Kd is 1.2 µM.

Broadly, the Kd is the concentration at which binding is half-saturated. A low value points to tighter binding.
